# From ChEMBL document CHEMBL1201862, “PubChem BioAssay data set” (2004)
#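 Cells were grown in 96-well plates and exposed to each compound for 48 hours at five concentrations; endpoints were interpolated linearly between bracketing concentrations, or set to the highest concentration if not reached. Abbreviation: GI50, concentration required for 50% inhibition of growth.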 Calls of active or inactive are those of the source. No stated cut-off is given here; in the data, active = GI50 up to about 1.1 µM and inactive = higher.
# Tests used:
# Assay in all cases: DTP human tumour cell line panel, 48 h
# 786-0 = test system: 786-0
# BT-549 = test system: BT-549
# COLO 205 = test system: COLO 205
# HOP-62 = test system: HOP-62
# HOP-92 = test system: HOP-92
# KM12 = test system: KM12
# LOX IMVI = test system: LOX IMVI
# MCF7 = test system: MCF7
# MDA-N = test system: MDA-N
# Malme-3M = test system: Malme-3M
# NCI/ADR-RES = test system: NCI/ADR-RES
# OVCAR-4 = test system: OVCAR-4
# PC-3 = test system: PC-3
# RXF 393 = test system: RXF 393
# SK-OV-3 = test system: SK-OV-3
# SNB-19 = test system: SNB-19
# SNB-75 = test system: SNB-75
# SW-620 = test system: SW-620
# U-251 = test system: U-251
# UACC-257 = test system: UACC-257
SMILES,GI50 (786-0),GI50 (BT-549),GI50 (COLO 205),GI50 (HOP-62),GI50 (HOP-92),GI50 (KM12),GI50 (LOX IMVI),GI50 (MCF7),GI50 (MDA-N),GI50 (Malme-3M),GI50 (NCI/ADR-RES),GI50 (OVCAR-4),GI50 (PC-3),GI50 (RXF 393),GI50 (SK-OV-3),GI50 (SNB-19),GI50 (SNB-75),GI50 (SW-620),GI50 (U-251),GI50 (UACC-257)
CN(C)Cc1cc(C(=O)O)cc(CN(C)C)c1O,> 100 µM (inactive),> 100 µM (inactive),> 100 µM (inactive),> 100 µM (inactive),> 100 µM (inactive),> 100 µM (inactive),> 100 µM (inactive),> 100 µM (inactive),> 100 µM (inactive),> 100 µM (inactive),> 100 µM (inactive),> 100 µM (inactive),> 100 µM (inactive),> 100 µM (inactive),> 100 µM (inactive),> 100 µM (inactive),> 100 µM (inactive),> 100 µM (inactive),> 100 µM (inactive),> 100 µM (inactive)
CCN1CCC(O)(/C=C/c2ccc(C(C)C)cc2)C(C(=O)/C=C/c2ccc(C(C)C)cc2)C1 (stereo not drawn),1.71 µM (inactive),4.15 µM (inactive),2.45 µM (inactive),3.52 µM (inactive),1.85 µM (inactive),1.85 µM (inactive),0.895 µM (active),2.46 µM (inactive),2.37 µM (inactive),5.02 µM (inactive),3.08 µM (inactive),3.04 µM (inactive),3.52 µM (inactive),2.56 µM (inactive),14 µM (inactive),3.8 µM (inactive),4.62 µM (inactive),2.67 µM (inactive),2.61 µM (inactive),6.67 µM (inactive)
O=C1C2CCN(CC2)C1(CO)CO,28.2 µM (inactive),19.8 µM (inactive),18.7 µM (inactive),> 88.5 µM (inactive),22 µM (inactive),64.7 µM (inactive),16 µM (inactive),24.7 µM (inactive),39.1 µM (inactive),18.2 µM (inactive),24.5 µM (inactive),19.4 µM (inactive),> 79.1 µM (inactive),21.1 µM (inactive),60.7 µM (inactive),> 100 µM (inactive),57.7 µM (inactive),18.2 µM (inactive),41.1 µM (inactive),18.6 µM (inactive)
C[C@H](NC(=O)C(Cc1ccccc1)(Cc1ccc(O)cn1)NC(=O)c1ccccc1)c1ccccc1 (stereo partly drawn),16.7 µM (inactive),18.1 µM (inactive),19.1 µM (inactive),17.9 µM (inactive),21.3 µM (inactive),19.8 µM (inactive),14.8 µM (inactive),24.2 µM (inactive),15.5 µM (inactive),17.5 µM (inactive),17.4 µM (inactive),15.1 µM (inactive),14.2 µM (inactive),14.3 µM (inactive),,18.8 µM (inactive),,22.5 µM (inactive),15.3 µM (inactive),17.7 µM (inactive)
Cc1cn([C@H]2[C@@H](CO)C[C@H]2O)c(=O)[nH]c1=O,> 100 µM (inactive),> 100 µM (inactive),> 100 µM (inactive),> 100 µM (inactive),> 100 µM (inactive),> 100 µM (inactive),> 100 µM (inactive),> 100 µM (inactive),> 100 µM (inactive),> 100 µM (inactive),> 100 µM (inactive),> 100 µM (inactive),> 100 µM (inactive),> 100 µM (inactive),,,> 100 µM (inactive),> 100 µM (inactive),> 100 µM (inactive),50.4 µM (inactive)
O=C1/C(=C\c2ccc(Br)cc2)CCCc2ccccc21,14.6 µM (inactive),24 µM (inactive),17.9 µM (inactive),46.5 µM (inactive),19.1 µM (inactive),15.6 µM (inactive),16.3 µM (inactive),19.5 µM (inactive),17.4 µM (inactive),,13.4 µM (inactive),12.3 µM (inactive),20.3 µM (inactive),21 µM (inactive),35.6 µM (inactive),16.6 µM (inactive),18.8 µM (inactive),16.9 µM (inactive),15 µM (inactive),19.5 µM (inactive)
CC(=O)OCC1OC(n2c(-c3ccccc3)c(/N=N/c3ccc(C)cc3)c(C)c(C#N)c2=S)C(OC(C)=O)C(OC(C)=O)C1OC(C)=O (stereo not drawn),3.55 µM (inactive),6.44 µM (inactive),23.1 µM (inactive),18.7 µM (inactive),0.0257 µM (active),8.28 µM (inactive),6 µM (inactive),6.47 µM (inactive),7.36 µM (inactive),> 10 µM (inactive),7.35 µM (inactive),5.87 µM (inactive),> 10 µM (inactive),16.2 µM (inactive),,15.3 µM (inactive),,2.31 µM (inactive),14.9 µM (inactive),32.1 µM (inactive)
CC(=O)NC1=C(C)C(=O)c2c(nc3n2CC[C@H]3OC(C)=O)C1=O,1.95 µM (inactive),1.59 µM (inactive),1.91 µM (inactive),10.8 µM (inactive),0.416 µM (active),1.71 µM (inactive),0.718 µM (active),1.49 µM (inactive),0.628 µM (active),1.51 µM (inactive),2.06 µM (inactive),0.891 µM (active),0.637 µM (active),1.73 µM (inactive),,5.5 µM (inactive),3.13 µM (inactive),1.53 µM (inactive),1.59 µM (inactive),1.01 µM (active)
CCOP(=O)(OCC)C(Cc1cn(S(=O)(=O)c2ccc(C)cc2)cn1)C(=O)O (stereo not drawn),> 100 µM (inactive),> 100 µM (inactive),> 100 µM (inactive),> 100 µM (inactive),> 100 µM (inactive),> 100 µM (inactive),> 100 µM (inactive),> 100 µM (inactive),> 100 µM (inactive),> 100 µM (inactive),> 100 µM (inactive),> 100 µM (inactive),> 100 µM (inactive),> 100 µM (inactive),> 100 µM (inactive),> 100 µM (inactive),> 100 µM (inactive),> 100 µM (inactive),> 100 µM (inactive),
CC(C)NC(=O)N(Nc1ccccc1)C(C)(C)C,> 100 µM (inactive),> 100 µM (inactive),> 100 µM (inactive),> 100 µM (inactive),> 100 µM (inactive),> 100 µM (inactive),> 100 µM (inactive),> 100 µM (inactive),> 100 µM (inactive),> 100 µM (inactive),> 100 µM (inactive),> 100 µM (inactive),> 100 µM (inactive),> 100 µM (inactive),> 100 µM (inactive),> 100 µM (inactive),73.8 µM (inactive),> 100 µM (inactive),> 100 µM (inactive),> 100 µM (inactive)
O=C(OCc1ccccc1)N(CCCCN(CCCNC(=O)C(F)(F)F)C(=O)OCc1ccccc1)CCCNC(=O)C(F)(F)F,> 100 µM (inactive),> 100 µM (inactive),> 88.1 µM (inactive),> 100 µM (inactive),> 100 µM (inactive),> 100 µM (inactive),> 100 µM (inactive),> 100 µM (inactive),> 100 µM (inactive),,22.5 µM (inactive),> 100 µM (inactive),36.9 µM (inactive),> 100 µM (inactive),> 100 µM (inactive),4.2 µM (inactive),> 100 µM (inactive),> 100 µM (inactive),> 100 µM (inactive),> 100 µM (inactive)
CCc1[nH]c(=O)nc(N)c1-c1ccc(N2CCCCC2)c([N+](=O)[O-])c1,> 100 µM (inactive),> 100 µM (inactive),> 100 µM (inactive),> 100 µM (inactive),> 100 µM (inactive),> 100 µM (inactive),> 100 µM (inactive),> 100 µM (inactive),> 100 µM (inactive),,> 100 µM (inactive),> 100 µM (inactive),> 100 µM (inactive),> 100 µM (inactive),> 100 µM (inactive),> 100 µM (inactive),> 100 µM (inactive),> 100 µM (inactive),> 100 µM (inactive),> 100 µM (inactive)
CCOc1cc(C2CC(c3ccc(NS(=O)(=O)c4cc([N+](=O)[O-])ccc4C)cc3)=NN2)ccc1O (stereo not drawn),20.1 µM (inactive),21.1 µM (inactive),22.3 µM (inactive),,45 µM (inactive),,22.5 µM (inactive),21.5 µM (inactive),33.2 µM (inactive),25 µM (inactive),24.2 µM (inactive),22.8 µM (inactive),31 µM (inactive),18.6 µM (inactive),,30.3 µM (inactive),29.8 µM (inactive),32.8 µM (inactive),,
O=C(O/C=C\OC1CCCC1(c1ccccc1)c1ccccc1)c1ccccc1 (stereo not drawn),4.03 µM (inactive),2.12 µM (inactive),15.6 µM (inactive),18.8 µM (inactive),2.07 µM (inactive),14.9 µM (inactive),1.67 µM (inactive),2.6 µM (inactive),3.47 µM (inactive),,2.88 µM (inactive),3.15 µM (inactive),3.34 µM (inactive),2.49 µM (inactive),16.5 µM (inactive),14.8 µM (inactive),3.83 µM (inactive),2.7 µM (inactive),3.66 µM (inactive),15.8 µM (inactive)
